Laboratory results published in publication PMC5838563, “Compounds producing an effective combinatorial regimen for disruption of HIV‐1 latency” (EMBO Molecular Medicine, 2017).

Key:
[1] = tested on: HIV‐1 LTR (Jurkat^Tat LTR‐luciferase cell line); assay: Jurkat^Tat LTR‐luciferase reporter assay for HIV‐1 latency reversal; format: cell-based; settings: Human immunodeficiency virus 1; 24 h treatment, percent activation relative to PMA
Protocol: Activity of compounds identified for latency‐reversing activity in the primary screens was further validated by examining the effect of a single concentration (7 μM) on an alternative reporter cell line, bearing an integrated HIV‐1 reporter virus where luciferase expression is produced from the 5′ LTR, in cells constitutively expressing the viral TAT protein (Fig 2A), referred to as Jurkat^Tat LTR‐luciferase. Importantly, this cell line has the HIV‐1 reporter virus integrated at a different chromosomal location than that of the A1 J‐Lat cell line and also enables validation of provirus reactivation with a second enzymatic luciferase assay. In these assays, after 24‐h treatment we observed 10 compounds that produced significant induction of luciferase activity, including two compounds from the KD2 library, three from the CCBN library and five compounds from the DIVERSet. Compounds that produced significant effects in these secondary assays were re‐ordered from their respective suppliers and examined in more detail using the HIV‐luciferase reporter cell line. […] These five compounds represent diverse chemical structures (Fig 2G).
Figure 2 Concentration–response analysis for five selected PH compounds • A Schematic representation of the pTY‐LAI‐luciferase reporter virus used in secondary screening assays, where luciferase expression is under the control of the 5′ LTR, in cloned lines derived from Jurkat^TAT cells bearing single‐copy integrants. • B–F Luciferase activity was measured from reporter cells treated for 24 h with the indicated compound concentrations. Results are presented as percent activation relative to PMA‐treated controls. The EC50 for each compound is indicated. Mean and standard error (SE) for the results are determined from three biological replicates (n = 3) and technical duplicates. • G Illustration of chemical structures of the PH compounds.
Luciferase assays were performed in 96‐well plate format, where 100 μl of cell culture containing 1 × 10^5 luciferase reporter cells was plated per well. After the indicated time of treatment, 100 μl of luciferase assay reagent (SuperlightTM luciferase reporter Gene Assay Kit; BioAssay Systems) was added per well, and incubated for 2 min at RT, when luciferase activity was measured on a VictorTM X3 Multilabel Plate Reader. Results were presented relative to the positive control samples treated with 50 nM PMA. T‐cell activation was measured using 1 × 10^5 wild‐type Jurkat^Tat cells or PBMCs purified from healthy donors, treated as indicated. After 24 h, cells were incubated with 2.4G2 antibody to block nonspecific binding and further stained with 5 μl of anti‐human CD69 or an IgG1 isotype control antibody conjugated with PE‐Cy^Tm7. After 30‐min incubation on ice, the cells were washed twice with PBS and analyzed using a Becton Dickinson LSRII flow cytometer (BD Biosciences) to determine mean fluorescence intensity (MFI), using FlowJo software. The mean fluorescence intensity (MFI) obtained from cells stained with IgG isotype antibody control was subtracted from that from cells stained with CD69 to compensate for background (MFICD69‐MFIIgG). IL‐2 production was measured in cell culture supernatants using a human IL‐2 ELISA System (eBioscience). Jurkat^Tat clones bearing integrations of the mini‐dual HIV reporter virus, clone #11 and #131, were plated at 1 × 10^5 per well in a 96‐well plate format, treated for the indicated time, washed with 1 ml PBS, and then transferred into flow cytometry tubes, where they were fixed with freshly made 1% formaldehyde for 10 min at RT prior to analysis by flow cytometry. Results are presented as ΔMFI, where MFI obtained from parental Jurkat^Tat cells undergoing the same treated was subtracted from the MFI corresponding to each cell line; ΔMFI = (MFI compound‐treated cell line 131/11 − MFI compound‐treated WT Jurkat^Tat cells).

PKCδ/θ and IκBα/IκBε = tested on: PKCδ/θ and IκBα/IκBε; set-up: method as in Jiang et al, 2015; settings: 12 nM PEP005; ref Jiang et al, 2015; cited from earlier work

Compound | EC50 [1] | time post‐treatment at which phosphorylation is induced (PKCδ/θ and IκBα/IκBε)
CC(=O)Oc1ccccc1N(C=C1Sc2ccccc2C1=O)C(C)=O [PH02, 2‐{acetyl[(3‐oxo‐1‐benzothien‐2(3H)‐ylidene)methyl]amino}phenyl acetate] | 787 nM | 
C/C=C(/C)C(=O)O[C@H]1C(C)=C[C@]23C(=O)[C@@H](C=C(CO)[C@@H](O)[C@]12O)[C@H]1[C@@H](C[C@H]3C)C1(C)C [PEP005, ingenol‐3‐angelate, reference compound] |  | 0.5 to 2 h
